According to patent US20140336182A1, “Aurora Kinase Modulators and Method of Use” (Amgen Inc., priority 2013, published 2014):
Read-outs that look alike come from different tables or passages of the source.

Tested on: HeLa cells
Assay: HeLa cell 24 hr ploidy assay (DNA content)
Type: cell-based
Conditions: HeLa cells, 4N ploidy, read-out: 24h_4NPloidy EC50_IP (uM Avg)
How it was run: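 DNA content measured by Hoechst 33342 nuclear staining (0.5 ug/ml, 45 min RT) and high-content imaging of fixed HeLa cells after 24 h compound exposure in 0.25% DMSO. Fractions of 4N and >4N cells fitted to dose curves giving EC50 IP, EC50 transit, Max and Min.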

[1] = Homo sapiens, HeLa, given as class symbol

EC50 (Homo sapiens, HeLa, average) | Compound | also measured
> 1.2 µM | COc1cnc2c(Oc3ccc(Nc4nnc(-c5ccc([S+](C)[O-])cc5)c5ccccc45)cc3)ccnc2c1 (stereo not drawn) [compound 262] | 
0.138 µM | COc1cnc2c(Oc3ccc(Nc4nnc(-c5ccc(S(C)(=O)=O)cc5)c5ccccc45)cc3)ccnc2c1 [compound 263] | 
0.056 µM | N#Cc1cnc2c(Oc3ccc(Nc4nnc(-c5ccc(Cl)cc5)c5ccccc45)cc3)ccnc2c1 [compound 265, 8-((4-((4-(4-chlorophenyl)-1-phthalazinyl)amino)phenyl)oxy)-1,5-naphthyridine-3-carbonitrile] | 
0.016 µM | COc1ccc2nccc(Oc3ccc(Nc4nnc(-c5cc(C)cs5)c5ccccc45)cc3)c2c1 [compound 269] | 
0.082 µM | CCN(CC)C(=O)c1cc2nccc(Oc3ccc(Nc4nnc(-c5ccc(Cl)cc5)c5ccccc45)cc3)c2s1 [compound 270] | 
0.004 µM | COc1cnc2c(Sc3ccc(Nc4nnc(-c5cc(C)cs5)c5ccccc45)cc3)ccnc2c1 [compound 271, N-(4-(7-methoxy-1,5-naphthyridin-4-ylthio)phenyl)-4-(4-methylthiophen-2-yl)phthalazin-1-amine] | 
0.011 µM | COc1ccc2nccc(Oc3ccc(Nc4nnc(-c5ccc(Cl)cn5)c5ccccc45)cc3)c2c1 [compound 278] | 
≥ 1.2 µM | COc1cc2nncc(Oc3ccc(Nc4nnc(-c5ccc(Cl)cc5)c5ccccc45)cc3)c2cc1OC [compound 282] | 
0.343 µM | COc1cnc2c(Oc3ccc(Nc4nnc(-c5ccnc(Cl)c5)c5ccccc45)cc3)ccnc2c1 [compound 283] | 
0.011 µM | COc1cnc2c(Oc3ccc(Nc4nnc(-c5ccc(Cl)cc5)c5ccccc45)cc3F)ccnc2c1 [compound 284] | 
0.088 µM | Cc1noc(-c2cc3nccc(Oc4ccc(Nc5nnc(-c6ccc(Cl)cc6)c6ccccc56)cc4)c3s2)n1 [compound 286] | 
0.06 µM | C#Cc1ccc(-c2nnc(Nc3ccc(Oc4ccnc5cc(OC)cnc45)cc3)c3ccccc23)cc1 [compound 287] | 
0.397 µM | Clc1ccc(-c2nnc(Nc3ccc(Oc4ncnc5[nH]ccc45)cc3)c3ccccc23)cc1 [compound 290] | 
0.012 µM | COc1ccc2nccc(Sc3ccc(Nc4nnc(-c5ccccc5)c5ccccc45)cc3)c2c1 [compound 292, N-(4-((6-(methyloxy)-4-quinolinyl)thio)phenyl)-4-phenyl-1-phthalazinamine] | 
0.25 µM | Cc1noc(-c2cc3nccc(Sc4ccc(Nc5nnc(-c6ccccc6)c6ccccc56)cc4)c3s2)n1 [compound 303, N-(4-((2-(3-methyl-1,2,4-oxadiazol-5-yl)thieno[3,2-b]pyridin-7-yl)thio)phenyl)-4-phenyl-1-phthalazinamine] | 
0.008 µM | COc1cnc2c(Sc3ccc(Nc4nnc(-c5ccc(Cl)cn5)c5ccccc45)cc3)ccnc2c1 [compound 304, 4-(5-chloro-2-pyridinyl)-N-(4-((7-(methyloxy)-1,5-naphthyridin-4-yl)thio)phenyl)-1-phthalazinamine] | 

EC50 (Homo sapiens, HeLa, average) | Compound | also measured
0.011 µM | c1ccc(-c2nnc(Nc3ccc(Sc4ccnc5ccccc45)cc3)c3ccccc23)cc1 [compound 310] | 
0.055 µM | Fc1cc(F)c2c(Sc3ccc(Nc4nnc(-c5ccccc5)c5ccccc45)cc3)ccnc2c1 [compound 311] | 
0.03 µM | O=C(c1cc2nccc(Sc3ccc(Nc4nnc(-c5ccc(Cl)cc5)c5ccccc45)cc3)c2s1)N1CCOCC1 [compound 314] | 
0.014 µM | COc1ccc2nccc(Sc3ccc(Nc4nnc(-c5ccc(Cl)cc5)c5ccccc45)cc3)c2c1 [compound 315, 4-(4-chlorophenyl)-N-(4-(6-methoxyquinolin-4-ylthio)phenyl)phthalazin-1-amine] | 
0.033 µM | COc1cnc2c(Oc3ccc(Nc4nnc(-c5cccc(C)c5)c5ccccc45)cc3)ccnc2c1 [compound 317] | 
0.028 µM | COc1ccc2c(Cc3ccc(Nc4nnc(-c5ccccc5)c5ccccc45)cc3)ccnc2c1 [compound 319] | 
0.131 µM | Cc1noc(-c2cc3nccc(Sc4ccc(Nc5nnc(-c6ccc(Cl)cc6)c6ccccc56)cc4)c3s2)n1 [compound 323] | 
0.029 µM | Clc1ccc(-c2nnc(Nc3ccc(Sc4ccnc5cc(Br)cnc45)cc3)c3ccccc23)cc1 [compound 324] | 
0.017 µM | COc1cccc(-c2nnc(Nc3ccc(Sc4ccnc5ccccc45)cc3)c3ccccc23)n1 [compound 327] | 
0.006 µM | COc1ccc2c(Cc3ccc(Nc4nnc(-c5ccc(Cl)cc5)c5ccccc45)cc3)ccnc2c1 [compound 328] | 
0.057 µM | c1ccc(-c2nnc(Nc3ccc(Sc4ccnc5[nH]ccc45)cc3)c3ccccc23)cc1 [compound 329] | 
0.016 µM | Clc1ccc(-c2nnc(Nc3ccc(Sc4ccnc5[nH]ccc45)cc3)c3ccccc23)cc1 [compound 330] | 
0.021 µM | COc1ccc2c(Sc3ccc(Nc4nnc(-c5ccccc5)c5ccccc45)cc3)ccnc2c1 [compound 331] | 
0.001 µM | Clc1ccc(-c2nnc(Nc3ccc(Sc4ccnc5ccsc45)cc3)c3ccccc23)cc1 [compound 332] | 
≥ 1.2 µM | Clc1ccc(-c2nnc(Nc3ccc(Sc4ccnc5ccccc45)cc3)c3ccccc23)cc1 [compound 333] | 
0.018 µM | COc1ccc2c(Sc3ccc(Nc4nnc(-c5ccc(Cl)cc5)c5ccccc45)cc3)ccnc2c1 [compound 334] | 

The remaining lines, values behind:

Compound | EC50 (Homo sapiens, HeLa, average) | also measured
c1ccc(-c2nnc(Nc3ccc(Oc4ccnc5ccc(N6CCOCC6)cc45)cc3)c3ccccc23)cc1 [compound 264] | 0.387 µM | 
Clc1ccc(-c2nnc(Nc3ccc(Oc4ncnc5[nH]cnc45)cc3)c3ccccc23)cc1 [compound 266] | > 1.2 µM | 
Cn1cncc1-c1cc2nccc(Oc3ccc(Nc4nnc(-c5ccc(Cl)cc5)c5ccccc45)cn3)c2s1 [compound 267] | 0.013 µM | 
COc1cnc2c(Oc3ccc(Nc4nnc(-c5ccc(C)nc5)c5ccccc45)cc3)ccnc2c1 [compound 268] | 0.066 µM | 
c1ccc2c(-c3ccc4c(c3)CCO4)nnc(Nc3ccc(Oc4ccnc5ccsc45)cc3)c2c1 [compound 272] | 0.006 µM | 
c1ccc(-c2nnc(Nc3ccc(Oc4ncnc5[nH]ccc45)cc3)c3ccccc23)cc1 [compound 273] | > 1.2 µM | 
CCc1cc(-c2ccccc2)nnc1Nc1ccc(Sc2ccnc3cc(OC)cnc23)cc1 [compound 274, 4-ethyl-N-(4-(7-methoxy-1,5-naphthyridin-4-ylthio)phenyl)-6-phenylpyridazin-3-amine] | 0.029 µM | 
CCc1cc(-c2ccc(Cl)cc2)nnc1Nc1ccc(Oc2ccnc3cc(OC)cnc23)nc1 [compound 275, 6-(4-chlorophenyl)-4-ethyl-N-(6-(7-methoxy-1,5-naphthyridin-4-yloxy)pyridin-3-yl)pyridazin-3-amine] | 0.161 µM | 
Fc1cc(F)c2c(Oc3ccc(Nc4nnc(-c5ccccc5)c5ccccc45)cc3)ccnc2c1 [compound 276] | 0.054 µM | 
Cc1nc(-c2nnc(Nc3ccc(Oc4ccnc5cc(C#N)ccc45)cc3)c3ccccc23)sc1C [compound 277] | 0.035 µM | 
c1ccc2c(-c3ccc4c(c3)OCO4)nnc(Nc3ccc(Oc4ccnc5ccsc45)cc3)c2c1 [compound 279] | 0.011 µM | 
COc1cnc2c(Oc3ccc(Nc4nnc(-c5cnc6[nH]ccc6c5)c5ccccc45)cc3)ccnc2c1 [compound 280] | 0.08 µM | 
COc1cnc2c(Oc3ccc(Nc4nnc(-c5ccccc5)c(C)c4C)cc3)ccnc2c1 [compound 281] | 0.378 µM | 
c1ccc(-c2nnc(Nc3ccc(Sc4ccnc5cccnc45)cc3)c3ccccc23)cc1 [compound 285] |  | EC50 (average): 0.009 µM
Cc1noc(-c2cc3nccc(Oc4ccc(Nc5nnc(-c6ccccc6)c6ccccc56)cc4)c3s2)n1 [compound 288] | 0.828 µM | 
Cc1csc(-c2nnc(Nc3ccc(Oc4ccnc5ccsc45)cc3)c3ccccc23)c1 [compound 289] | 0.073 µM | 

Compound | EC50 (Homo sapiens, HeLa, average) | also measured
COc1cnc2c(Oc3ccc(Nc4nnc(-c5ccc6c(c5)OC(F)(F)O6)c5ccccc45)cc3)ccnc2c1 [compound 291] | 0.045 µM | 
FC1(F)Oc2ccc(-c3nnc(Nc4ccc(Oc5ccnc6ccsc56)cc4)c4ccccc34)cc2O1 [compound 293] | 0.045 µM | 
c1ccc(-c2nnc(Nc3ccc(Sc4ccnc5ccccc45)cc3)c3ccccc23)cc1 [compound 294] |  | EC50 [1]: < 0.1 µM
Fc1cc(F)c2c(Sc3ccc(Nc4nnc(-c5ccccc5)c5ccccc45)cc3)ccnc2c1 [compound 295] |  | EC50 [1]: < 0.1 µM
COc1cnc2c(Oc3ccc(Nc4nnc(-c5ccc6c(c5)OCO6)c5ccccc45)cc3)ccnc2c1 [compound 306, 4-(1,3-benzodioxol-5-yl)-N-(4-((7-(methyloxy)-1,5-naphthyridin-4-yl)oxy)phenyl)-1-phthalazinamine] | 0.006 µM | 
CCc1cc(-c2ccc(C)cc2)nnc1Nc1ccc(Oc2ccnc3cc(OC)cnc23)cc1 [compound 307] | 0.023 µM | 
Clc1ccc(-c2nnc(Nc3ccc(Sc4ccnc5cccnc45)cc3)c3ccccc23)cc1 [compound 308] |  | EC50 (average): 0.006 µM
c1ccc(-c2nnc(Nc3ccc(Sc4ccnc5cccnc45)cc3)c3ccccc23)cc1 [compound 309] |  | EC50 (average): 0.021 µM
Cc1csc(-c2nnc(Nc3ccc(Sc4ccnc5cc(C(=O)N6CCOCC6)sc45)cc3)c3ccccc23)c1 [compound 312] | 0.032 µM | 
O=C(c1cc2nccc(Sc3ccc(Nc4nnc(-c5ccccc5)c5ccccc45)cc3)c2s1)N1CCOCC1 [compound 313] | 0.076 µM | 
COc1cnc2c(Oc3ccc(Nc4nnc(-c5cc(Cl)cs5)c5ccccc45)cc3)ccnc2c1 [compound 316] | 0.027 µM | 
CCc1cc(N2CC[C@H]3CCCC[C@@H]3C2)nnc1Nc1ccc(Oc2ccnc3cc(OC)cnc23)cc1 [compound 320] | 0.12 µM | 
CCc1cc(N2CCCCC2)nnc1Nc1ccc(Oc2ccnc3cc(OC)cnc23)cc1 [compound 321] | > 1.2 µM | 
CCc1cc(-c2ccc(C)cc2)nnc1Nc1ccc(Sc2ccnc3cc(OC)cnc23)cc1 [compound 322] | 0.017 µM | 
COc1cc2c(Oc3ccc(Nc4nnc(-c5ccccc5)c5ccccc45)cc3)ccnc2cc1OCc1ccccc1 [compound 326] | 0.06 µM | 
